Results on one compound are retold here after patent US10517842B2, “Methods of modulating miRNA levels and compositions for use in the same” (Los Angeles Biomedical Research Institute at Harbor-UCLA …, priority 2017, dated 2019).

What all share (format): cell-based, human
The subject of assay [1] is leiomyoma smooth muscle cells (LSMC). The experiment in a line: Cell proliferation assay (MTT). Conditions: Tranilast 100 to 400 μM, 48 hrs, dose-dependent, p<0.05. An excerpt:
Leiomyomas and matched myometrium (N=12) were collected from patients scheduled to undergo hysterectomy at Harbor-UCLA Medical Center with prior approval from Institutional Review Board (#036247). The tissues were either snap frozen and stored in liquid nitrogen for further analysis, or used for isolation of LSMC as previously described (Chuang et al., “miR-200c is aberrantly expressed in leiomyomas in an ethnic-dependent manner and targets ZEBs, VEGFA, TIMP2, and FBLN5,” Endocrine-related cancer (2012)19:541-56; Chuang et al., “miR-93/106b and their host gene, MCM7, are differentially expressed in leiomyomas and functionally target F3 and IL-8. Molecular endocrinology,” (2012) 26:1028-42). Briefly, LSMC were cultured in DMEM supplemented with 10% fetal bovine serum until reaching confluence with a change of media every 2-3 days. […]
LSMC were seeded at 1000 cells/well in 96-well plates and cultured for 48 hrs. […] The rate of cell proliferation was determined using the MTT assay and cells were photographed as previously described (Chuang & Khorram, “Mechanisms underlying aberrant expression of miR-29c in uterine leiomyoma,” Fertility and sterility (2016)105:236-45.e1; Chuang et al., “The Regulatory Function of miR-200c on Inflammatory and Cell-Cycle Associated Genes in SK-LMS-1, A Leiomyosarcoma Cell Line,” Reproductive sciences (2015) 22:563-71). […]

Assay [2] relates to CCND1. The experiment in a line: Quantitative RT-PCR, mRNA expression in LSMC. Conditions: Tranilast 200 μM vs DMSO, 12 h to 48 h, P<0.05. As for the experimental part: (§1) Total RNA was extracted from LSMC using RNAzol (GeneCopoeia, Rockville, Md.) and their quantity and quality was determined (ND-1000 Spectrophotometer, NanoDrop Technologies, Wilmington, Del.) as previously described (Chuang & Khorram, “miR-200c Regulates IL8 Expression by Targeting IKBKB: A Potential Mediator of Inflammation in Leiomyoma Pathogenesis,” PloS one (2014) 9:e95370). For medium miRNA extraction, 5 pg of synthetic miR-1 from Caenorhabditis elegans (cel-miR-1) was added as a spike-in control for purification efficiency. Subsequently, 2 μg or 10 ng (for miRNA) was reverse transcribed using random primers for CCND1, CDK2, COL1A1, COL3A1, TGF-β3, DNMT1 and EZH2 or specific primers for miR-29c and miR-200c according to the manufacturer's guidelines (Applied Biosystems, Carlsbad, Calif.). Quantitative RT-PCR was carried out using SYBR gene expression master mix or TaqMan miRNA expression assays (Applied Biosystems). Reactions were incubated for 10 min at 95° C. followed by 40 cycles for 15 seconds at 95° C. and 1 min at 60° C. The level of mRNAs and expression of cellular and secreted miRNA was determined using the Invitrogen StepOne System with 18S, RNU6B and cel-miR-1 used for normalization respectively. All reactions were run in triplicate and relative expression was analyzed with the comparative cycle threshold method (2^−ΔΔCT) according to the manufacturer (Applied Biosystems). Values were expressed as fold change compared to the control group.

For assay [3], the system named is CDK2. The experiment in a line: Quantitative RT-PCR, mRNA expression in LSMC. Conditions: Tranilast 200 μM vs DMSO, 12 h to 48 h, P<0.05. As for the experimental part:
as §1

Assay [4] deals with COL1. The experiment in a line: Quantitative RT-PCR, mRNA expression in LSMC. Conditions: Tranilast 200 μM vs DMSO, 12 h to 48 h, P<0.05. On the procedure: as §1
Assay [5] has as its system COL3A1. In words: Quantitative RT-PCR, mRNA expression in LSMC. Conditions: Tranilast 200 μM vs DMSO, 12 h to 48 h, P<0.05. As for the experimental part:
as §1

Assay [6] has as its system DNMT1. The experiment in a line: Quantitative RT-PCR, mRNA expression in LSMC. Conditions: Tranilast 200 μM vs DMSO, 12 h to 48 h, P<0.05. As for the experimental part:
as §1

The test system of assay [7] is EZH2. The experiment in a line: Quantitative RT-PCR, mRNA expression in LSMC. Conditions: Tranilast 200 μM vs DMSO, 12 h to 48 h, P<0.05. As for the experimental part:
as §1

Assay [8] has as its system TGF-β3. In words: Quantitative RT-PCR, mRNA expression in LSMC. Conditions: Tranilast 200 μM vs DMSO, 12 h to 48 h, P<0.05. On the procedure: as §1
Assay [9] deals with 3′UTR of COL3A1. In words: 3′UTR luciferase reporter assay in LSMC. Conditions: Tranilast 200 μM vs DMSO set as 1, 48 hrs before and 48 hrs after transfection, LSMC; P<0.05. As for the experimental part:
LSMC were seeded at 3.5×10^4 cells/well in 6-well plates and at sub-confluence were treated with Tranilast (200 μM) or DMSO as control for 48 hrs. Tranilast and DMSO-treated cells were then transfected with luciferase reporter plasmids (1 μg/well) containing 3′ UTR sequences for COL3A1 or CDK2 (GeneCopoeia, Inc., Rockville, Md.) using PureFection transfection reagent (System Biosciences, Inc., Palo Alto, Calif.). After 48 hrs of transfection Firefly and Renilla luciferase activities were measured using the Dual-Luciferase Reporter Assay System (Promega). Firefly luciferase activity was normalized to Renilla luciferase activity. The level of induction was reported as mean±SEM of three experiments and compared with a ratio in cells treated with DMSO independently set as 1.
(§2) FIG. 10A: The relative luciferase activity in LSMC treated with Tranilast (200 μM) or DMSO as control for 48 hrs prior to transfection with Renilla and Firefly luciferase reporter plasmids carrying a 3′UTR fragment of COL3A1, CDK2 or IL8 and incubated with Tranilast (200 μM) or DMSO containing medium after transfection for another 48 hrs. The relative luciferase activity is presented as the ratio of Firefly:Renilla as compared to DMSO which was independently set as 1. The results are presented as mean±SEM of at least three sets of independent experiments using LSMC isolated from 3 patients. FIG. 10B: Protein expression of COL3A1 and CDK2 was determined after transfection of anti-miR scrambled oligonucleotides (aNC) or anti-miR-29c oligonucleotides (a29c) in LSMC for 72 hrs with DMSO or Tranilast (200 μM) treatment for the last 48 hrs. GAPDH was used as loading control. The result is one representative of at least three sets of independent experiments using LSMC isolated from 3 patients. FIG. 10C: The bar graph presented the relative band densities as mean±SEM of at least three independent experiments. Inhibition of protein expression by Tranilast treatment was calculated relative to changes in corresponding DMSO controls in cells transfected with aNC or anti-miR-29c.
(In general: A reporter such as luciferase makes a cellular process visible.)

The test system of assay [10] is 3′UTR fragment of IL8. In words: 3′UTR luciferase reporter assay in LSMC. Conditions: Tranilast 200 μM vs DMSO. As for the experimental part:
as §2

For `COc1ccc(C=CC(=O)Nc2ccccc2C(=O)O)cc1OC` [Tranilast, 2-[[3-(3,4-dimethoxyphenyl)-1-oxo-2-propenyl]amino]benzoic acid], in [1], the “rate of LSMC cell proliferation” value was “significantly inhibited”. In addition, the “CCND1 expression, mRNA level” value in [2] is “significantly inhibited”. Further, the “CDK2 expression, mRNA level” value in assay [3] was “significantly inhibited”. The “COL1 expression, mRNA level” value in assay [4] was “significantly inhibited”. Further, the “COL3A1 expression, mRNA level” value in assay [5] was “significantly inhibited”. Besides, the “DNMT1 expression, mRNA level” value in assay [6] was “significantly inhibited”. Besides, the “EZH2 expression, mRNA level” value in assay [7] was “significantly inhibited”. Further, the “TGF-β3 expression, mRNA level” value in [8] is “significantly inhibited”. In addition, the “3′UTR activity of COL3A1 (relative luciferase activity, Firefly:Renilla)” value in [9] was “suppressed”. For the same compound, the “expression of IL8 (heading to FIG. 10A, 3′UTR reporter)” value in assay [10] was “Down-regulated”.
